{
  "source": "BindingDB's records for doi:10.1021/jm00129a030",
  "about": "(Takeda Chemical Industries, 1989)",
  "biological_target": "Thromboxane A2 receptor (Cavia porcellus)",
  "assay": "In vitro concentration that reduced specific binding of [3H][…] to guinea pig platelet receptor, Thromboxane A2 receptor by 50%",
  "data": [
    {"smiles": "CCCCC[C@H](O)/C=C/[C@@H]1[C@@H](C/C=C\\CCCC(=O)O)[C@H]2CO[C@@H]1C2", "note": "[(Z)-7-((1R,4S,5S,6R)-6-((S,E)-3-hydroxyoct-1-enyl)-2-oxabicyclo[2.2.1]heptan-5-yl)hept-5-enoic acid]", "values": [
      {"measurement": "IC50", "value": 31, "unit": "nM"}
    ]}
  ]
}
